Source: paper PMC11240139, “Exploring the antitumor potential of novel quinoline derivatives via tubulin polymerization inhibition in breast cancer; design, synthesis and molecular docking” (RSC Advances, 2024)

Legend:
Type in all cases: cell-based
CCRF-CEM (leukemia) = assay: NCI-60 SRB cytotoxicity screen; details: Homo sapiens, single dose 10 μM, read-out: growth inhibition (GI%)
HL-60(TB) (leukemia) = assay: NCI-60 SRB cytotoxicity screen; details: Homo sapiens, single dose 10 μM, read-out: growth inhibition (GI%)
K-562 (leukemia) = assay: NCI-60 SRB cytotoxicity screen; details: Homo sapiens; K-652 [sic], single dose 10 μM; read-out: growth inhibition (GI%)
RPMI-8226 (leukemia) = assay: NCI-60 SRB cytotoxicity screen; details: Homo sapiens; RPMI-8226, single dose 10 μM; read-out: growth inhibition (GI%)
[1] = tested on: A549/ATCC (non-small cell lung cancer); assay: NCI-60 SRB cytotoxicity screen; details: Homo sapiens, single dose 10 μM, read-out: growth inhibition (GI%)
[2] = tested on: EKVX (non-small cell lung cancer); assay: NCI-60 SRB cytotoxicity screen; details: Homo sapiens, single dose 10 μM, read-out: growth inhibition (GI%)
[3] = tested on: HOP-62 (non-small cell lung cancer); assay: NCI-60 SRB cytotoxicity screen; details: Homo sapiens; HOP-62, single dose 10 μM; read-out: growth inhibition (GI%)
[4] = tested on: HOP-92 (non-small cell lung cancer); assay: NCI-60 SRB cytotoxicity screen; details: Homo sapiens; HOP-92, single dose 10 μM; read-out: growth inhibition (GI%)
[5] = tested on: NCI-H226 (non-small cell lung cancer); assay: NCI-60 SRB cytotoxicity screen; details: Homo sapiens; NCI-H226, single dose 10 μM; read-out: growth inhibition (GI%)
[6] = tested on: NCI-H322M (non-small cell lung cancer); assay: NCI-60 SRB cytotoxicity screen; details: Homo sapiens, single dose 10 μM, read-out: growth inhibition (GI%)
COLO 205 (colon cancer) = assay: NCI-60 SRB cytotoxicity screen; details: Homo sapiens; COLO 205, single dose 10 μM; read-out: growth inhibition (GI%)
HCC-2998 (colon cancer) = assay: NCI-60 SRB cytotoxicity screen; details: Homo sapiens; HCC-2998, single dose 10 μM; read-out: growth inhibition (GI%)
HCT-116 (colon cancer) = assay: NCI-60 SRB cytotoxicity screen; details: Homo sapiens; HCT-116, single dose 10 μM; read-out: growth inhibition (GI%)
HCT-15 (colon cancer) = assay: NCI-60 SRB cytotoxicity screen; details: Homo sapiens; HCT-15, single dose 10 μM; read-out: growth inhibition (GI%)
SF-268 (CNS cancer) = assay: NCI-60 SRB cytotoxicity screen; details: Homo sapiens; SF-268, single dose 10 μM; read-out: growth inhibition (GI%)
SF-295 (CNS cancer) = assay: NCI-60 SRB cytotoxicity screen; details: Homo sapiens; SF-295, single dose 10 μM; read-out: growth inhibition (GI%)
SNB-75 (CNS cancer) = assay: NCI-60 SRB cytotoxicity screen; details: Homo sapiens, SNB-75, SNB-75, single dose 10 μM; read-out: growth inhibition (GI%)
U251 (CNS cancer) = assay: NCI-60 SRB cytotoxicity screen; details: Homo sapiens, U-251; U251, single dose 10 μM; read-out: growth inhibition (GI%)
SK-MEL-2 (melanoma) = assay: NCI-60 SRB cytotoxicity screen; details: Homo sapiens; SK-MEL-2, single dose 10 μM; read-out: growth inhibition (GI%)
UACC-257 (melanoma) = assay: NCI-60 SRB cytotoxicity screen; details: Homo sapiens; UACC-257, single dose 10 μM; read-out: growth inhibition (GI%)
UACC-62 (melanoma) = assay: NCI-60 SRB cytotoxicity screen; details: Homo sapiens; UACC-62, single dose 10 μM; read-out: growth inhibition (GI%)
OVCAR-3 (ovarian cancer) = assay: NCI-60 SRB cytotoxicity screen; details: Homo sapiens; OVCAR-3, single dose 10 μM; read-out: growth inhibition (GI%)
OVCAR-4 (ovarian cancer) = assay: NCI-60 SRB cytotoxicity screen; details: Homo sapiens; OVCAR-4, single dose 10 μM; read-out: growth inhibition (GI%)
OVCAR-5 (ovarian cancer) = assay: NCI-60 SRB cytotoxicity screen; details: Homo sapiens; OVCAR-5, single dose 10 μM; read-out: growth inhibition (GI%)
OVCAR-8 (ovarian cancer) = assay: NCI-60 SRB cytotoxicity screen; details: Homo sapiens; OVCAR-8, single dose 10 μM; read-out: growth inhibition (GI%)
SK-OV-3 (ovarian cancer) = assay: NCI-60 SRB cytotoxicity screen; details: Homo sapiens; SK-OV-3, single dose 10 μM; read-out: growth inhibition (GI%)
RXF 393 (renal cancer) = assay: NCI-60 SRB cytotoxicity screen; details: Homo sapiens; RXF 393, single dose 10 μM; read-out: growth inhibition (GI%)
UO-31 (renal cancer) = assay: NCI-60 SRB cytotoxicity screen; details: Homo sapiens; UO-31, single dose 10 μM; read-out: growth inhibition (GI%)
PC-3 (prostate cancer) = assay: NCI-60 SRB cytotoxicity screen; details: PC-3, single dose 10 μM; read-out: growth inhibition (GI%)
DU-145 (prostate cancer) = assay: NCI-60 SRB cytotoxicity screen; details: Homo sapiens; DU-145, single dose 10 μM; read-out: growth inhibition (GI%)
[7] = tested on: MDA-MB-231/ATCC (breast cancer); assay: NCI-60 SRB cytotoxicity screen; details: Homo sapiens, MDA-MB-231, read-out: growth inhibition (GI%);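 note: growth inhibition in percent at a single 10 µM dose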
HS 578T (breast cancer) = assay: NCI-60 SRB cytotoxicity screen; details: Homo sapiens, single dose 10 μM, read-out: growth inhibition (GI%)
T-47D (breast cancer) = assay: NCI-60 SRB cytotoxicity screen; details: Homo sapiens, T47D, single dose 10 μM, read-out: growth inhibition (GI%)
[8] = tested on: 60 cancer cell lines (NCI); assay: NCI-60 single-dose screen, overall verdict over the panel; details: single dose 10 μM, whole panel
Description: The cytotoxic activity of the synthesized quinoline derivatives was determined by the national cancer institute (NCI, Bethesda, Maryland, USA) against 60 different cancer cell lines at a single high dose (10^−5 M) in the full NCI 60 cell panel using the sulforhodamine B assay for cell viability evaluation. In summary, 5 × 10^3 cells were in 96-well plate and incubated in complete media for 24 h. Cells were treated with 100 μL of media containing each newly synthesized compound. After drug exposure, cells were fixed by replacing media with 150 μL of 10% TCA and incubated at 4 °C for 1 h. The TCA solution was removed, and the cells were washed 5 times with distilled water. Aliquots of 70 μL SRB solution (0.4% w/v) were added and incubated in a dark place at room temperature for 10 min. The plates were washed 3 times with 1% acetic acid and allowed to air-dry overnight. Then, 150 μL of TRIS (10 mM) was added to dissolve protein-bound SRB stain. The absorbance was measured at 540 nm.% Cytotoxicity = [1 − (AVx/AVNC)] × 100where AVx denotes the average absorbance of the sample well and AVNC denotes the average absorbance of the negative control.

SMILES | inhibition at 10 µM (CCRF-CEM (leukemia)) | inhibition at 10 µM (HL-60(TB) (leukemia)) | inhibition at 10 µM (K-562 (leukemia)) | inhibition at 10 µM (RPMI-8226 (leukemia)) | inhibition at 10 µM [1] | inhibition at 10 µM [2] | inhibition at 10 µM [3] | inhibition at 10 µM [4] | inhibition at 10 µM [5] | inhibition at 10 µM [6] | inhibition at 10 µM (COLO 205 (colon cancer)) | inhibition at 10 µM (HCC-2998 (colon cancer)) | inhibition at 10 µM (HCT-116 (colon cancer)) | inhibition at 10 µM (HCT-15 (colon cancer)) | inhibition at 10 µM (SF-268 (CNS cancer)) | inhibition at 10 µM (SF-295 (CNS cancer)) | inhibition at 10 µM (SNB-75 (CNS cancer)) | inhibition at 10 µM (U251 (CNS cancer)) | inhibition at 10 µM (SK-MEL-2 (melanoma)) | inhibition at 10 µM (UACC-257 (melanoma)) | other results
CCc1cccc2cc(C3C=C(c4ccc(Br)cc4)NC(=S)N3)c(Cl)nc12 (stereo not shown) [Compound 6e, 6-(4-Bromophenyl)-4-(2-chloro-8-ethylquinolin-3-yl)-3,4-dihydropyrimidine-2(1H)-thione] | < 10% | < 10% | < 10% | 10.7% | < 10% | < 10% | < 10% | < 10% | < 10% | < 10% | < 10% | < 10% | 10.5% | < 10% | < 10% | < 10% | < 10% | < 10% | < 10% | < 10% | inhibition at 10 µM (UACC-62 (melanoma)): < 10%; inhibition at 10 µM (OVCAR-3 (ovarian cancer)): < 10%; inhibition at 10 µM (OVCAR-4 (ovarian cancer)): 10.2%; inhibition at 10 µM (OVCAR-5 (ovarian cancer)): < 10%; inhibition at 10 µM (OVCAR-8 (ovarian cancer)): < 10%; inhibition at 10 µM (SK-OV-3 (ovarian cancer)): 10.7%; inhibition at 10 µM (RXF 393 (renal cancer)): < 10%; inhibition at 10 µM (UO-31 (renal cancer)): 32.7%; inhibition at 10 µM (PC-3 (prostate cancer)): < 10%; inhibition at 10 µM (DU-145 (prostate cancer)): < 10%; inhibition at 10 µM [7]: < 10%; inhibition at 10 µM (HS 578T (breast cancer)): < 10%; inhibition at 10 µM (T-47D (breast cancer)): < 10%; cytotoxic activity over the cell lines (in words) [8]: limited cytotoxic activity
CCc1cccc2cc(C3C=C(c4ccc(OC)cc4)NC(=S)N3)c(Cl)nc12 (stereo not shown) [Compound 6a, 4-(2-Chloro-8-ethylquinolin-3-yl)-6-(4-methoxyphenyl)-3,4-dihydropyrimidine-2(1H)-thione] | < 10% | < 10% | < 10% | < 10% | < 10% | < 10% | < 10% | < 10% | < 10% | < 10% | < 10% | < 10% | < 10% | < 10% | < 10% | < 10% | 14.9% | < 10% | < 10% | < 10% | inhibition at 10 µM (UACC-62 (melanoma)): 10.4%; inhibition at 10 µM (OVCAR-3 (ovarian cancer)): < 10%; inhibition at 10 µM (OVCAR-4 (ovarian cancer)): < 10%; inhibition at 10 µM (OVCAR-5 (ovarian cancer)): < 10%; inhibition at 10 µM (OVCAR-8 (ovarian cancer)): < 10%; inhibition at 10 µM (SK-OV-3 (ovarian cancer)): 14.9%; inhibition at 10 µM (RXF 393 (renal cancer)): < 10%; inhibition at 10 µM (UO-31 (renal cancer)): 18.6%; inhibition at 10 µM (PC-3 (prostate cancer)): < 10%; inhibition at 10 µM (DU-145 (prostate cancer)): < 10%; inhibition at 10 µM [7]: < 10%; inhibition at 10 µM (HS 578T (breast cancer)): < 10%; inhibition at 10 µM (T-47D (breast cancer)): < 10%; cytotoxic activity over the cell lines (in words) [8]: limited cytotoxic activity
CCc1cccc2cc(-c3cc(-c4ccc(Br)cc4)[nH]c(=S)c3C#N)c(Cl)nc12 [Compound 5e, 6-(4-Bromophenyl)-4-(2-chloro-8-ethylquinolin-3-yl)-2-thioxo-1,2-dihydropyridine-3-carbonitrile] | < 10% | < 10% | < 10% | 14.7% | < 10% | < 10% | < 10% | < 10% | < 10% | < 10% | < 10% | < 10% | < 10% | < 10% | < 10% | < 10% | 19.8% | < 10% | < 10% | < 10% | inhibition at 10 µM (UACC-62 (melanoma)): < 10%; inhibition at 10 µM (OVCAR-3 (ovarian cancer)): < 10%; inhibition at 10 µM (OVCAR-4 (ovarian cancer)): < 10%; inhibition at 10 µM (OVCAR-5 (ovarian cancer)): < 10%; inhibition at 10 µM (OVCAR-8 (ovarian cancer)): < 10%; inhibition at 10 µM (SK-OV-3 (ovarian cancer)): 11.2%; inhibition at 10 µM (RXF 393 (renal cancer)): < 10%; inhibition at 10 µM (UO-31 (renal cancer)): 24.1%; inhibition at 10 µM (PC-3 (prostate cancer)): < 10%; inhibition at 10 µM (DU-145 (prostate cancer)): < 10%; inhibition at 10 µM [7]: 12.9%; inhibition at 10 µM (HS 578T (breast cancer)): < 10%; inhibition at 10 µM (T-47D (breast cancer)): 10.4%; cytotoxic activity over the cell lines (in words) [8]: slight cytotoxic activity
CCc1cccc2cc(-c3cc(-c4ccc(Br)cc4)[nH]c(=O)c3C#N)c(Cl)nc12 [Compound 4e, 6-(4-Bromophenyl)-4-(2-chloro-8-ethylquinolin-3-yl)-2-oxo-1,2-dihydropyridine-3-carbonitrile] | < 10% | < 10% | 33.5% | < 10% | < 10% | < 10% | < 10% | < 10% | < 10% | < 10% | < 10% | < 10% | < 10% | < 10% | < 10% | < 10% | < 10% | < 10% | < 10% | < 10% | inhibition at 10 µM (UACC-62 (melanoma)): < 10%; inhibition at 10 µM (OVCAR-3 (ovarian cancer)): < 10%; inhibition at 10 µM (OVCAR-4 (ovarian cancer)): 10.8%; inhibition at 10 µM (OVCAR-5 (ovarian cancer)): < 10%; inhibition at 10 µM (OVCAR-8 (ovarian cancer)): < 10%; inhibition at 10 µM (SK-OV-3 (ovarian cancer)): 11.7%; inhibition at 10 µM (RXF 393 (renal cancer)): < 10%; inhibition at 10 µM (UO-31 (renal cancer)): 17.8%; inhibition at 10 µM (PC-3 (prostate cancer)): < 10%; inhibition at 10 µM (DU-145 (prostate cancer)): < 10%; inhibition at 10 µM [7]: < 10%; inhibition at 10 µM (HS 578T (breast cancer)): < 10%; inhibition at 10 µM (T-47D (breast cancer)): < 10%; cytotoxic activity over the cell lines (in words) [8]: mild cytotoxic activity
